Results as given in US9796672B2, “Isoindoline compositions and methods for treating neurodegenerative disease” (Cognition Therapeutics, Inc., priority 2014, dated 2017).
“Also recorded” adds a separate entry of the source.

Columns and labels:
Sigma-2 receptor = Sigma-2 receptor competitive radioligand binding assay; set-up: species or system rat; conditions: read-out: Sigma-2 Receptor Affinity, Ki
Experimental: Radioligand binding assays for Sigma-1 receptors and Sigma-2 receptors were carried out by a commercial contract research organization. For Sigma-1 binding, various concentrations of test compounds from 100 μM to 1 nM were used to displace 8 nM [^3H](+)pentazocine from endogenous receptors on Jurkat cell membranes (Ganapathy M E et al. 1991, J Pharmacol. Exp. Ther. 289:251-260). 10 μM Haloperidol was used to define non-specific binding. For Sigma-2 receptors various concentrations of test compounds from 100 μM to 1 nM were used to displace 5 nM [^3H] […] (Bowen W D, et al. 1993, Mol. Neuropharmcol 3:117-126). 10 μM Haloperidol was used to define non-specific binding. Reactions were terminated by rapid filtration through Whatman GF/C filters using a Brandel 12R cell harvester followed by two washes with ice-cold buffer. Radioactivity on the dried filter discs was measured using a liquid scintillation analyzer (Tri-Carb 2900TR; PerkinElmer Life and Analytical Sciences). The displacement curves were plotted and the Ki values of the test ligands for the receptor subtypes were determined using GraphPad Prism (GraphPad Software Inc., San Diego, Calif.). The percentage specific binding was determined by dividing the difference between total bound (disintegrations per minute) and nonspecific bound (disintegrations per minute) by the total bound (disintegrations per minute).
The affinity of candidate sigma-2 ligand compounds at sigma-1 and sigma-2 receptors was also determined by displacement of different known labeled sigma-2 or sigma-1 ligands. Filtration assays were conducted according the previously published procedure (Xu, et al., 2005). Test compounds were dissolved in N,N-Dimethylformamide (DMF), dimethyl sulfoxide (DMSO) or ethanol and then diluted in 50 mM Tris-HCl pH 7.4 buffer containing 150 mM NaCl and 100 mM EDTA. Membrane homogenates were made from guinea pig brain for sigma-1 binding assay and rat liver for sigma-2 binding assay. Membrane homogenates were diluted with 50 mM Tris-HCl buffer, pH 8.0 and incubated at 25° C. in a total volume of 150 uL in 96 well plates with the radioligand and test compounds with concentrations ranging from 0.1 nM to 10 uM. After incubation was completed, the reactions were terminated by the addition of 150 uL of ice-cold wash buffer (10 mM Tris HCl, 150 mM NaCl, pH 7.4) using a 96 channel transfer pipette (Fisher Scientific, Pittsburgh, Pa.) and the samples harvested and filtered rapidly through 96 well fiber glass filter plate (Millipore, Billerica, Mass.) that had been presoaked with 100 uL of 50 mM Tris-HCl buffer. Each filter was washed four times with 200 uL of ice-cold wash buffer (10 mM Tris-HCl, 150 mM NaCl, pH 7.4). A Wallac 1450 MicroBeta liquid scintillation counter (Perkin Elmer, Boston, Mass.) was used to quantitate the bound radioactivity.
Nonspecific binding was determined from samples that contained 10 uM of cold haloperidol.
The binding affinity, Ki values was calculated using the method of Cheng and Prusoff.

[1] = Mouse liver microsome (MLM) stability; type: in vitro ADME
Experimental: A first pharmacokinetic study was performed in microsomes of mice mouse liver microsomes, MLM) by a commercial contract research organization. The studies were performed according to Obach, R. S et al. (1997) J. Pharmacol. Exp. Ther., 283: 46-58, which is incorporated herein by reference.

neuronal cultures = test: Functional neuronal phenotype in neuronal cultures; type: cell-based; set-up: key: Antagonist: antagonists (block Abeta signaling); Agonist: agonists (block Abeta signaling with U-shaped dose-response curve and toxicity at high doses); Inactive: inactive (no effect in neuronal cultures)
Experimental: Neuronal cultures are treated with various concentrations of sigma compounds for 24 hours and nuclear intensity compared to vehicle is measured.

[2] = system: Abeta oligomer-induced membrane trafficking deficits in primary hippocampal neurons; test: Membrane trafficking/exocytosis (MTT) assay; conditions: read-out: Membrane Trafficking EC50; compound dosed prior to Abeta oligomer addition
Sigma-1 receptor = Sigma-1 receptor competitive radioligand binding assay; conditions: read-out: Sigma-1 Receptor Affinity, Ki
potassium channel hERG = potassium channel hERG (Homo sapiens (Human), UniProt Q12809); test: In vitro toxicity, hERG inhibition; type: biochemical
Sequence of potassium channel hERG (Q12809 whole entry): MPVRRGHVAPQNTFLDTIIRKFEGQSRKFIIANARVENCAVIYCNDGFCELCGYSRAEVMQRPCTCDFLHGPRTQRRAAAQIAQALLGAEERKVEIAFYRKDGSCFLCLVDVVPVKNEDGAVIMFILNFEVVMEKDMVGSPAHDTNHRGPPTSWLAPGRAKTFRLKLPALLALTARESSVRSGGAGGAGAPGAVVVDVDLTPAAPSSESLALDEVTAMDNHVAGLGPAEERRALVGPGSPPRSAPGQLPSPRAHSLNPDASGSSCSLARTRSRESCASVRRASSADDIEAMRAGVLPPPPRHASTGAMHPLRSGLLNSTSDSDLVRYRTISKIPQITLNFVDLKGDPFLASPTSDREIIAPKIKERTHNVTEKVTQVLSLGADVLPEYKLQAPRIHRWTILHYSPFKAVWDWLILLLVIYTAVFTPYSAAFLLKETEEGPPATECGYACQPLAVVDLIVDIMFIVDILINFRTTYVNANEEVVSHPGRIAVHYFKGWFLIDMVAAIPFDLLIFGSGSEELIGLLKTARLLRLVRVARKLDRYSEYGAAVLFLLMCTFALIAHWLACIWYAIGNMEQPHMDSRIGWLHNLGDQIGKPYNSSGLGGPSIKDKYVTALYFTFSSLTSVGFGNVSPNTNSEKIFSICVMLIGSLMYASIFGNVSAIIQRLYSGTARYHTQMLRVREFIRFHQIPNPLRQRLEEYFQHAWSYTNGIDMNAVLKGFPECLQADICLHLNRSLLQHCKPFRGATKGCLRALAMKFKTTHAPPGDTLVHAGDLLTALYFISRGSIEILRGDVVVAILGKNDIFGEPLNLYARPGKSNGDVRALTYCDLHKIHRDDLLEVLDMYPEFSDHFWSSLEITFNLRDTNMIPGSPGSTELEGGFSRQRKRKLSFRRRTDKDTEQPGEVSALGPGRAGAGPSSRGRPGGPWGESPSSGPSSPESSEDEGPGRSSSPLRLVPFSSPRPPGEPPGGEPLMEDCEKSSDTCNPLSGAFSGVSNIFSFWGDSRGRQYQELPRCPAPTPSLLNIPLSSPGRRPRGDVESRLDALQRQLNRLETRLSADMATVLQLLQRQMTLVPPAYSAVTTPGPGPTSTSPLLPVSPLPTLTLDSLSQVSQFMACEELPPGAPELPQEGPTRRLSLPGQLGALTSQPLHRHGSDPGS
Experimental: In vitro toxicity for Test Compounds is tested in a number of standard assays.

SMILES	Ki (Sigma-2 receptor)	Mouse liver microsomes, MLM t½ ([1]; mouse, microsomes)	neuronal phenotype (neuronal cultures)	EC50 [2]	Ki (Sigma-1 receptor)	IC50 (potassium channel hERG)	Mouse liver microsomes, MLM t½ ([1]; mouse liver microsomes)
COc1ccc(CCC(C)(C)N2Cc3ccc(S(C)(=O)=O)cc3C2)cc1OC [compound 101]	0.011 µM	84.21 min	Inactive	100 µM			
C[C@H](CCc1ccc(Cl)c(Cl)c1)N1Cc2cc(Cl)c(Cl)cc2C1 [compound 5]	0.0027 µM	53 min	Inactive	> 20 µM	0.056 µM		
COc1cc(CCC(C)(C)N2Cc3cccc(C(=O)N(C)CCN(C)C)c3C2)ccc1O [compound 81]		88 min	Inactive	100 µM		10 µM	
COc1cc(CC[C@@H](C)N2Cc3cccc(F)c3C2)ccc1O [compound 8]		16 min	Antagonist	0.25 to 0.4 µM	0.041 µM		
COc1cc2c(cc1OC)CN(C(C)(C)CCc1ccc(F)cc1)C2 [compound 34]		46 min	Antagonist	13 µM	0.0075 µM		
CC(C)(CCc1ccc(Cl)c(Cl)c1)N1Cc2cccc(N3CCNCC3)c2C1 [compound 109]	0.031 µM	253.79 min	Agonist	100 µM			
COc1cc(CC[C@@H](C)N2Cc3cc4c(cc3C2)OCO4)ccc1O [compound 6]			Antagonist	0.3 µM		0.98 µM	20 min
COc1ccc(CCC(C)(C)N2Cc3cccc(C(=O)N4CCNCC4)c3C2)cc1 [compound 99]	1.2 µM	93.3 min	Antagonist/; also recorded: Neuroactive	0.2 µM			
CC(C)COc1cc(CCC(C)(C)N2Cc3ccc(S(C)(=O)=O)cc3C2)ccc1O [compound 87]	0.0011 µM	86 min			0.069 µM	0.57 µM	
COc1cc(CCC(C)(C)N2Cc3cccc(C(=O)N(C)CCO)c3C2)ccc1O [compound 85]	0.36 µM	194 min			10 µM	33 µM	
CC(C)(C#Cc1ccc2[nH]ncc2c1)N1Cc2ccc(S(C)(=O)=O)cc2C1 [compound 110]	10 µM	15.66 min	Inactive	100 µM			
COc1ccc(CCC(C)(C)N2Cc3ccc(S(C)(=O)=O)cc3C2)cc1 [compound 102]	0.0018 µM	20.35 min	Inactive	100 µM			
COc1cc(CCC(C)(C)N2Cc3cccc(N4CCNCC4)c3C2)ccc1O [compound 107]	10 µM	25.21 min	Inactive	100 µM			
CC(C)Oc1cc(CC[C@@H](C)N2Cc3ccc(F)cc3C2)ccc1O [compound 37]	0.14 µM	5 min			0.0091 µM	0.48 µM	
COc1cc(CC[C@@H](C)N2Cc3cc(OC)c(OC)cc3C2)ccc1O [compound 7]	0.068 µM				0.042 µM		155 min
Cc1ccc2c(c1)CN([C@H](C)CCc1ccc(Cl)c(Cl)c1)C2 [compound 13]		3 min	Antagonist	0.3 µM		0.25 µM	
COc1cc(CC[C@@H](C)N2Cc3ccc(Cl)cc3C2)ccc1O [compound 1]	0.025 µM	11 min			0.031 µM	0.43 µM	
COc1ccc(CCC(C)(C)N2Cc3cccc(C(=O)N4CCNCC4)c3C2)cc1OC [compound 100]	10 µM	156.24 min	Antagonist	1.1 µM			

SMILES	Ki (Sigma-2 receptor)	Mouse liver microsomes, MLM t½ ([1]; mouse, microsomes)	neuronal phenotype (neuronal cultures)	EC50 [2]	Ki (Sigma-1 receptor)	IC50 (potassium channel hERG)	Mouse liver microsomes, MLM t½ ([1]; mouse liver microsomes)
COc1cc(CC[C@@H](C)N2Cc3cc(Cl)c(Cl)cc3C2)ccc1O [compound 3]	0.24 µM	21 min	Neuroactive	3.8 µM	0.023 µM		
C[C@H](CCc1ccc(OC(=O)N(C)C)c(OC(F)(F)F)c1)N1Cc2cccc(F)c2C1 [compound 41]		9 min	Inactive/	> 20 µM	0.52 µM		
COc1cccc(CCC(C)(C)n2cc3ccc(S(C)(=O)=O)cc3c2)c1 [compound 104]	0.76 µM		Inactive	100 µM			
COc1cccc(CCC(C)(C)N2Cc3ccc(S(C)(=O)=O)cc3C2)c1 [compound 103]	0.0014 µM	15.2 min	Inactive	100 µM			
CC(C)(CCc1ccc(Cl)c(Cl)c1)N1Cc2ccc(N3CCNCC3)cc2C1 [compound 108]	0.015 µM	1236.31 min	Inactive	100 µM			
COc1cc(CCC(C)(C)N2Cc3cc4c(cc3C2)OCO4)ccc1OCCO [compound 47]		91 min	Inactive		1 µM		
COc1cccc(CCC(C)(C)N2Cc3cccc(C(=O)N4CCNCC4)c3C2)c1 [compound 98]	10 µM	29.35 min	Antagonist/; also recorded: Neuroactive	0.35 µM			
COc1cc(CCC(C)(C)N2Cc3cccc(C(=O)N4CCOCC4)c3C2)ccc1O [compound 80]	1.4 µM	45 min	Inactive	100 µM		7.4 µM	
C[C@H](CCc1ccc(Cl)c(Cl)c1)N1Cc2ccc(C(F)(F)F)cc2C1 [compound 4]	0.0022 µM	40 min	Inactive	> 20 µM	0.033 µM		
CC(C)(C)Oc1cc(CCC(C)(C)n2cc3ccc(S(C)(=O)=O)cc3c2)ccc1O [compound 95]	0.1 µM		Antagonist	1.7 µM			
COc1cc(CC[C@@H](C)N2Cc3ccc(S(C)(=O)=O)cc3C2)ccc1O [compound 68]		152 min	Inactive		0.1 µM		
CC(C)(CCc1ccc(Cl)c(Cl)c1)N1Cc2cccc(C(=O)N3CCNCC3)c2C1 [compound 106]	0.24 µM	160.43 min	Agonist	3.4 µM			
C[C@H](CCc1ccc(Cl)c(Cl)c1)N1Cc2ccc(F)cc2C1.Cl [compound 12]		13 min	Antagonist	0.4 µM			
COc1cc(CCC(C)(C)N2Cc3cccc(C(=O)N4CCN(C)CC4)c3C2)ccc1O [compound 82]		27 min	Inactive	100 µM		52 µM	
CC(=O)Oc1ccc(CCC(C)(C)N2Cc3ccc(S(C)(=O)=O)cc3C2)cc1OC(C)(C)C [compound 96]	0.0066 µM	<1.75 min	Inactive	100 µM			
CC(C)(CCc1ccc(Cl)cc1)N1Cc2cccc(C(=O)N3CCNCC3)c2C1 [compound 105]	0.18 µM	106.23 min	Neuroactive	2.6 µM			
COc1cc(CCC(C)(C)N2Cc3ccc(N4CCNCC4)cc3C2)ccc1O [compound 111]	0.74 µM	27.01 min	Inactive	100 µM			
